Test results: patent publication US20070191413A1, “Novel heterocycle-substituted hydroxy-6-phenylphenanthridines and their use as pde4 inhibitors” (Atlanta Pharma AG, priority 2004, published 2007)

What follows are molecules tested against T1, PDE4B2 (Homo sapiens, UniProt Q07343) (assay: Inhibition of PDE4B2 activity in a modified SPA (scintillation proximity assay) test). Conditions: recombinant PDE4B2 (SF21 cell supernatant), [3H]cAMP SPA, 0.5 μM cAMP, 37° C.; value given as a range for the group of listed compounds; read-out: Inhibition of the PDE4 activity, −log IC50 (converted).
T1 construct: made in house; host or cells: SF21 insect cells (baculovirus; virus prepared in SF9 cells)
T1 sequence (Q07343 1-564 isoform Q07343-2): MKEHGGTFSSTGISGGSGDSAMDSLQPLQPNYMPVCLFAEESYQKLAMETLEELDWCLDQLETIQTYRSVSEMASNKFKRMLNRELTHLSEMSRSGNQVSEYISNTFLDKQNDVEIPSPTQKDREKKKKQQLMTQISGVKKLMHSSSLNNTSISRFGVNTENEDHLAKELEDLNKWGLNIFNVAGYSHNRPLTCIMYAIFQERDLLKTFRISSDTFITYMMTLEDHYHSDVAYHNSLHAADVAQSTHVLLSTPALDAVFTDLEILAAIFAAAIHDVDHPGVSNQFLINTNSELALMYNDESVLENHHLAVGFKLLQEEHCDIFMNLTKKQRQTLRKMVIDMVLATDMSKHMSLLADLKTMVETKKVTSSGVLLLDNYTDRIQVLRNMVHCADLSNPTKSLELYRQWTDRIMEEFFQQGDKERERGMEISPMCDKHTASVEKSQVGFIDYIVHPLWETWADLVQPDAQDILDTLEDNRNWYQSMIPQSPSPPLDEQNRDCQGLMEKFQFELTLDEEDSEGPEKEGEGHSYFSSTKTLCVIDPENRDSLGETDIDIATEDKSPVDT
Type: biochemical
Description: The PDE4B2 (GB no. M97515) was a gift of Prof. M. Conti (Stanford University, USA). It was amplified from the original plasmid (pCMV5) via PCR with primers Rb9 (5′-[…]-3′) and Rb10 (5′-[…]-3′) and cloned into the pCR-Bac vector (Invitrogen, Groningen, NL).
The recombinant baculovirus was prepared by means of homologous recombination in SF9 insect cells. The expression plasmid was cotransfected with Bac-N-Blue (Invitrogen, Groningen, NL) or Baculo-Gold DNA (Pharmingen, Hamburg) using a standard protocol (Pharmingen, Hamburg). Wt virus-free recombinant virus supernatant was selected using plaque assay methods. After that, high-titre virus supernatant was prepared by amplifying 3 times. PDE was expressed in SF21 cells by infecting 2×10^6 cells/ml with an MOI (multiplicity of infection) between 1 and 10 in serum-free SF900 medium (Life Technologies, Paisley, UK). The cells were cultured at 28° C. for 48-72 hours, after which they were pelleted for 5-10 min at 1000 g and 4° C.
The SF21 insect cells were resuspended, at a concentration of approx. 10^7 cells/ml, in ice-cold (4° C.) homogenization buffer (20 mM Tris, pH 8.2, containing the following additions: 140 mM NaCl, 3.8 mM KCl, 1 mM EGTA, 1 mM MgCl2, 10 mM P-mercaptoethanol, 2 mM benzamidine, 0.4 mM Pefablock, 10 μM leupeptin, 10 μM pepstatin A, 5 μM trypsin inhibitor) and disrupted by ultrasonication. The homogenate was then centrifuged for 10 min at 1000×g and the supernatant was stored at −80° C. until subsequent use (see below). The protein content was determined by the Bradford method (BioRad, Munich) using BSA as the standard.
PDE4B2 activity is inhibited by the said compounds in a modified SPA (scintillation proximity assay) test, supplied by Amersham Biosciences (see procedural instructions “phosphodiesterase [3H]cAMP SPA enzyme assay, code TRKQ 7090”), carried out in 96-well microtitre plates (MTP's). The test volume is 100 μl and contains 20 mM Tris buffer (pH 7.4), 0.1 mg of BSA (bovine serum albumin)/ml, 5 mM Mg^2+, 0.5 μM cAMP (including about 50,000 cpm of [3H]cAMP), 1 μl of the respective substance dilution in DMSO and sufficient recombinant PDE (1000×g supernatant, see above) to ensure that 10-20% of the CAMP is converted under the said experimental conditions. […] After a preincubation of 5 min at 37° C., the reaction is started by adding the substrate (cAMP) and the assay is incubated for a further 15 min; after that, it is stopped by adding SPA beads (50 μl). In accordance with the manufacturer's instructions, the SPA beads had previously been resuspended in water, but were then diluted 1:3 (v/v) in water; the diluted solution also contains 3 mM IBMX to ensure a complete PDE activity stop. After the beads have been sedimented (>30 min), the MTP's are analyzed in commercially available luminescence detection devices. The corresponding IC50 values of the compounds for the inhibition of PDE activity are determined from the concentration-effect curves by means of non-linear regression.

| IC50 [nM] | Structure (SMILES) |
| --- | --- |
| 0.724 to 7.41 | CCOc1cc2c(cc1OC)C(c1ccc(-n3ccnc3)cc1)=N[C@@H]1CC[C@@H](O)C[C@H]21 (racemic) [Compound 1, (2RS,4aRS,10bRS)-9-Ethoxy-6-(4-imidazol-1 yl-phenyl)-8-methoxy-1,2,3,4,4a,10b-hexahydro-phenanthridin-2-ol] |
| 0.724 to 7.41 | CCOc1cc2c(cc1OC)C(c1ccc(N3CCN(C)CC3)cc1)=N[C@@H]1CC[C@@H](O)C[C@H]21 (racemic) [Compound 2, (2RS,4aRS,10bRS)-9-Ethoxy-8-methoxy-6-[4-(4-methyl-piperazin-1-yl)-phenyl]-1,2,3,4,4a,10b-hexahydro-phenanthridin-2-ol] |
| 0.724 to 7.41 | CCOc1cc2c(cc1OC)C(c1ccc(-c3nc(OC)cc(OC)n3)cc1)=N[C@@H]1CC[C@@H](O)C[C@H]21 (racemic) [Compound 3, (2RS,4aRS,10bRS)-6-[4-(4,6-Dimethoxy-pyrimidin-2-yl)-phenyl]-9-ethoxy-8-methoxy-1,2,3,4,4a,10b-hexahydro-phenanthridin-2-ol] |
| 0.724 to 7.41 | CCOc1cc2c(cc1OC)C(c1ccc(-c3csnn3)cc1)=N[C@@H]1CC[C@@H](O)C[C@H]21 (racemic) [Compound 4, (2RS,4aRS,10bRS)-9-Ethoxy-8-methoxy-6-(4-[1,2,3]thiadiazol-4-yl-phenyl)-1,2,3,4,4a,10b-hexahydro-phenanthridin-2ol] |
| 0.724 to 7.41 | CCOc1cc2c(cc1OC)C(c1ccc(N3CCOCC3)cc1)=N[C@@H]1CC[C@@H](O)C[C@H]21 (racemic) [Compound 5, (2RS,4aRS,10bRS)-9-Ethoxy-8-methoxy-6-(4-morpholin-4-yl-phenyl)-1,2,3,4,4a,10b-hexahydro-phenanthridin-2-ol] |
| 0.724 to 7.41 | CCCn1nnc(-c2ccc(C3=N[C@@H]4CC[C@@H](O)C[C@@H]4c4cc(OC)c(OC)cc43)cc2)n1 (racemic) [Compound 6, (2RS,4aRS,10bRS)-8,9-Dimethoxy-6-[4-(2-propyl-2H-tetrazol-5-yl)-phenyl]-1,2,3,4,4a,10b-hexahydro-phenanthridin-2-ol] |
| 0.724 to 7.41 | CCn1nnc(-c2ccc(C3=N[C@@H]4CC[C@@H](O)C[C@@H]4c4cc(OC)c(OC(F)F)cc43)cc2)n1 (racemic) [Compound 7, (2RS,4aRS,10bRS)-8-(1,1-Difluoro-methoxy)-6-[4-(2ethyl-2H-tetrazol-5-yl)-phenyl]-9-methoxy-1,2,3,4,4a,10b-hexahydro-phenanthridin-2-ol] |
| 0.724 to 7.41 | CCn1nnc(-c2ccc(C3=N[C@@H]4CC[C@@H](O)C[C@@H]4c4cc(OC(F)F)c(OC)cc43)cc2)n1 (racemic) [Compound 8, (2RS,4aRS,10bRS)-9-(1,1-Difluoro-methoxy)-6-[4-(2-ethyl-2H-tetrazol-5-yl)-phenyl]-8-methoxy-1,2,3,4,4a,10b-hexahydro-phenanthridin-2ol] |
